Reference: patent US12486267B2, “Imidazo[1,2-A]pyridine and [1,2,4]triazolo[1,5-A]pyridine derivatives as TLR9 inhibitors for the treatment of fibrosis” (BRISTOL-MYERS SQUIBB COMPANY, priority 2020, dated 2025)

Assays:
Assay type in all cases: cell-based
human TLR9 = molecular target: T1, human TLR9 (Homo sapiens, UniProt Q9NR96); assay: TLR9 inhibition reporter assay (HEK-Blue cells, SEAP reporter); conditions: HEK-Blue cells overexpressing human TLR9; stimulated with ODN2006 5 nM; 22 hour incubation; SEAP readout
T1 sequence (Q9NR96 26-1032): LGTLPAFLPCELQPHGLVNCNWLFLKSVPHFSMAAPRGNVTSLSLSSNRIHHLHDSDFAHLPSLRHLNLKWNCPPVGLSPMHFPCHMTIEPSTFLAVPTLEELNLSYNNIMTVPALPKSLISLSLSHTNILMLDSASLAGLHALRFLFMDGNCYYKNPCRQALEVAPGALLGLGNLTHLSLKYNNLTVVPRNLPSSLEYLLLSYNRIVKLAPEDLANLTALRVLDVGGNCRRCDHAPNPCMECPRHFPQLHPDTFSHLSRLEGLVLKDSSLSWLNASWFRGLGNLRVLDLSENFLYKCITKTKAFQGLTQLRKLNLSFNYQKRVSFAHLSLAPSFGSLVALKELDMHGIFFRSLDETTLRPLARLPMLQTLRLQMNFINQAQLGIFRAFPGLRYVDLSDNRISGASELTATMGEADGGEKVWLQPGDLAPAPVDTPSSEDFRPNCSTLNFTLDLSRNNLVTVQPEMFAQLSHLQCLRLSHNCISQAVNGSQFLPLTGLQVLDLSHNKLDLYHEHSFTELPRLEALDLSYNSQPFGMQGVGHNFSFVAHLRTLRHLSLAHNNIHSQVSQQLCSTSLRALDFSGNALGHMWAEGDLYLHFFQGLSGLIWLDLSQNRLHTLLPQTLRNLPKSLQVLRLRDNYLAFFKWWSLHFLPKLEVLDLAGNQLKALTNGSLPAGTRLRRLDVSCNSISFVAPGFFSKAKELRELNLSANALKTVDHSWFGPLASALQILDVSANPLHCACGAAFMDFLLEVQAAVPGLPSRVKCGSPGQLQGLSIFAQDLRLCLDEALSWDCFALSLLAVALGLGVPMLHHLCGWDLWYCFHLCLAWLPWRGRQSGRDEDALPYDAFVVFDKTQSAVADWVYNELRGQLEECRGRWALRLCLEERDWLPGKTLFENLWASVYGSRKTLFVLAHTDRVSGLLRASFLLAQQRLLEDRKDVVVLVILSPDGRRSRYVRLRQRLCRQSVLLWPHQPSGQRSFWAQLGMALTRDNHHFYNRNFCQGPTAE
Summary of the method: (§1)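 HEK-Blue cells with an NF-κB/AP-1-driven SEAP reporter were pre-treated 30 min at room temperature with compound (0.05 nM–50 μM), then stimulated with gardiquimod 7.5 μM (TLR7), R848 15.9 μM (TLR8) or ODN2006 5 nM (TLR9). After 22 h at 37 °C, SEAP was read; % inhibition was referenced to agonist+DMSO and known-inhibitor wells.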

human TLR7 = molecular target: T2, human TLR7 (Homo sapiens, UniProt Q9NYK1); assay: TLR7 inhibition reporter assay (HEK-Blue cells, SEAP reporter); conditions: HEK-Blue cells overexpressing human TLR7; stimulated with gardiquimod 7.5 μM; 22 hour incubation; SEAP readout
T2 sequence (Q9NYK1 27-1049): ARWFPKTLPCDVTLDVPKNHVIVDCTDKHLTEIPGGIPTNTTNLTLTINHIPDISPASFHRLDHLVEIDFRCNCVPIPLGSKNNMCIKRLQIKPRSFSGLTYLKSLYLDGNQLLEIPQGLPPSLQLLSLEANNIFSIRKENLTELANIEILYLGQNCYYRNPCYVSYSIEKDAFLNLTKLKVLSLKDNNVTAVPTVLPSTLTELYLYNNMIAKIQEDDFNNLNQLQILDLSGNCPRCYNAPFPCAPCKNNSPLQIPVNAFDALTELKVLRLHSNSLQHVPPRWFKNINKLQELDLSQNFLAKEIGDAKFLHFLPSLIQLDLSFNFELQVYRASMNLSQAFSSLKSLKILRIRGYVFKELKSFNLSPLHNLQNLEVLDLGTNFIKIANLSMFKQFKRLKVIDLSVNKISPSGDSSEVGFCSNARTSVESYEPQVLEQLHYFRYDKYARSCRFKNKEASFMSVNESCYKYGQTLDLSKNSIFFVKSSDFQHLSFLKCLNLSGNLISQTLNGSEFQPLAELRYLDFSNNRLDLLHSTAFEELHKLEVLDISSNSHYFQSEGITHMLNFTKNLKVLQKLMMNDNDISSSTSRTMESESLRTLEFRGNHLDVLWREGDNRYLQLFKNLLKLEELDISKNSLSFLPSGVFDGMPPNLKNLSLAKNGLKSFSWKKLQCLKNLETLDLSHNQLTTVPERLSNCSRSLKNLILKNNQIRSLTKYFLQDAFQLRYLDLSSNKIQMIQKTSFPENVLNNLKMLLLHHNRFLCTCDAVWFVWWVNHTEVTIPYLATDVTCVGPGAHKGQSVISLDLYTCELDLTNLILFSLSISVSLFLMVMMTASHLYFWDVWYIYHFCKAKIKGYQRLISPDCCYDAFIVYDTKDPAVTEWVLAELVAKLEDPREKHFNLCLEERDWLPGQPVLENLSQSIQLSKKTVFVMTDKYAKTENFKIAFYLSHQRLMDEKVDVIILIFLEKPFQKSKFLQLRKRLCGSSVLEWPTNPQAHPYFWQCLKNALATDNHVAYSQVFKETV
Summary of the method: as §1

human TLR8 = molecular target: T3, human TLR8 (Homo sapiens, UniProt Q9NR97); assay: TLR8 inhibition reporter assay (HEK-Blue cells, SEAP reporter); conditions: HEK-Blue cells overexpressing human TLR8; stimulated with R848 15.9 μM; 22 hour incubation; SEAP readout
T3 sequence (Q9NR97 27-1041): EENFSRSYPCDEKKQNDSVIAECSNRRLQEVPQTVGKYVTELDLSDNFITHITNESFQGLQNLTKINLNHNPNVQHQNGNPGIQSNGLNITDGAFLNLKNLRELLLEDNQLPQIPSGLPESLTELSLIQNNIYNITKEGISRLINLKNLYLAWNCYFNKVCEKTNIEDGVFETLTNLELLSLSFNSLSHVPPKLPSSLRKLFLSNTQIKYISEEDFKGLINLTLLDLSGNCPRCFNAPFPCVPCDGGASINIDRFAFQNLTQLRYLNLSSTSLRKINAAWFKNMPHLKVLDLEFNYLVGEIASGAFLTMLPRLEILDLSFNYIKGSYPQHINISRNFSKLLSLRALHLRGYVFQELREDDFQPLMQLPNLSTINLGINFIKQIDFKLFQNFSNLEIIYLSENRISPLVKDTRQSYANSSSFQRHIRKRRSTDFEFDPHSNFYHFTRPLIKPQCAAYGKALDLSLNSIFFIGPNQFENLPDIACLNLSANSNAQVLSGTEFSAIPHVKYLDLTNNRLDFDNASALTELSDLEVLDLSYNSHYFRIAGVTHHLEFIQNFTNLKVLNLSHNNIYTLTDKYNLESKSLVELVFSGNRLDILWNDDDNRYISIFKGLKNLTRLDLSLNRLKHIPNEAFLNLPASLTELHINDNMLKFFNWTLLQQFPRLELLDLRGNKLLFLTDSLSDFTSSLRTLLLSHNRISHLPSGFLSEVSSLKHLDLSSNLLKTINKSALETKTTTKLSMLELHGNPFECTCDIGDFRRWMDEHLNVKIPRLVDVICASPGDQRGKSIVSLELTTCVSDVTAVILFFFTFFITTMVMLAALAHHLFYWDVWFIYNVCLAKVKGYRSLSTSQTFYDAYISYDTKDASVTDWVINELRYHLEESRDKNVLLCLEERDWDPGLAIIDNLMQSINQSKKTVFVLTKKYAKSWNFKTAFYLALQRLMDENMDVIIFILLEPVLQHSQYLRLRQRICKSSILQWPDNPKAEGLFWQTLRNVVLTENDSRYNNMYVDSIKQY
Protocol: TLR7/8/9 Inhibition Reporter Assays
HEK-Blue™-cells (Invivogen) overexpressing human TLR7, TLR8 or TLR9 receptors were used for screening inhibitors of these receptors using an inducible SEAP (secreted embryonic alkaline phosphatase) reporter gene under the control of the […] minimal promoter fused to five NF-κB and AP-1-binding sites. Briefly, cells are seeded into Greiner 384 well plates (15000 cells per well for TLR7, 20,000 for TLR8 and 25,000 for TLR9) and then treated with test compounds in DMSO to yield a final dose response concentration range of 0.05 nM-50 μM. After a 30 minute compound pre-treatment at room temperature, the cells are then stimulated with a TLR7 ligand (gardiquimod at a final concentration of 7.5 μM), TLR8 ligand (R848 at a final concentration of 15.9 μM) or TLR9 ligand (ODN2006 at a final concentration of 5 nM) to activate NF-κB and AP-1 which induce the production of SEAP. After a 22 hour incubation at 37° C., 5% CO2, SEAP levels are determined with the addition of HEK-Blue™ Detection reagent (Invivogen), a cell culture medium that allows for detection of SEAP, according to manufacturer's specifications. The percent inhibition is determined as the % reduction in the HEK-Blue signal present in wells treated with agonist plus DMSO alone compared to wells treated with a known inhibitor.

Compound | IC50 (human TLR9) | IC50 (human TLR7) | IC50 (human TLR8)
COc1ccc(-c2cn3c(n2)CCC(C2CCN(C4CCN(CC5CC5)CC4)CC2)C3)cc1OC (racemic) [Example 55, 6-(1′-(cyclopropylmethyl)-[1,4′-bipiperidin]-4-yl)-2-(3,4-dimethoxyphenyl)-5,6,7,8-tetrahydroimidazo[1,2-a]pyridine] | 0.038 µM | 1.6 µM | > 50 µM
CS(=O)(=O)c1ccc(-c2cn3c(n2)CC[C@@H](C2CCN(C4CC5CCC(C4)N5CC4CC4)CC2)C3)cc1 (single isomer, unassigned) [Example 141] | 0.023 µM | 15.8 µM | > 50 µM
Cc1cc(-c2ccc(N3CCN(CC4CCC4)CC3)cc2)cn2cc(-c3ccc(S(C)(=O)=O)cc3)nc12 [Example 101, 6-(4-(4-(cyclobutylmethyl)piperazin-1-yl)phenyl)-8-methyl-2-(4-(methylsulfonyl)phenyl)imidazo[1,2-a]pyridine] | 0.803 µM | 18.4 µM | 14 µM
COc1ccc(-c2cn3c(n2)CCC(C2CCN(C4CCN(C(=O)C(C)C)CC4)CC2)C3)cc1OC (single isomer, unassigned) [Example 40, 1-(4-(2-(3,4-dimethoxyphenyl)-5,6,7,8-tetrahydroimidazo[1,2-a]pyridin-6-yl)-[1,4′-bipiperidin]-1′-yl)-2-methylpropan-1-one] | 0.185 µM | 38 µM | > 50 µM
COc1ccc(-c2cn3cc(-c4ccc(N5CCN(CC(C)C)CC5)cc4)cc(C)c3n2)cc1OC [Example 94, 2-(3,4-dimethoxyphenyl)-6-(4-(4-isobutylpiperazin-1-yl)phenyl)-8-methylimidazo[1,2-a]pyridine] | 0.22 µM | > 50 µM | > 50 µM
Cc1cc(C2CCN(C3CC4CCC(C3)N4CC3CCC3)CC2)cn2cc(-c3ccc(S(C)(=O)=O)cc3)nc12 (single isomer, unassigned) [Example 89, 6-(1-(8-(cyclobutylmethyl)-8-azabicyclo[3.2.1]octan-3-yl)piperidin-4-yl)-8-methyl-2-(4-(methylsulfonyl)phenyl)imidazo[1,2-a]pyridine] | 0.329 µM | 2.2 µM | > 50 µM
COc1ccc(-c2cn3c(n2)CCC(C2CCN(C4CCN(C5CC5)CC4)CC2)C3)cc1OC (single isomer, unassigned) [Example 38, 6-(1′-cyclopropyl-[1,4′-bipiperidin]-4-yl)-2-(3,4-dimethoxyphenyl)-5,6,7,8-tetrahydroimidazo[1,2-a]pyridine] | 0.045 µM | 6 µM | > 50 µM
COc1ccc(-c2cn3c(n2)CCC(C2CCN(C4CCN(C(=O)C(C)C)CC4)CC2)C3)cc1OC (racemic) [Example 39, 1-(4-(2-(3,4-dimethoxyphenyl)-5,6,7,8-tetrahydroimidazo[1,2-a]pyridin-6-yl)-[1,4′-bipiperidin]-1′-yl)-2-methylpropan-1-one] | 0.141 µM | 43 µM | > 50 µM
CC(C)N1C2CCC1CC(N1CCC(c3cc(F)c4nc(-c5ccc(S(C)(=O)=O)cc5)cn4c3)CC1)C2 (single isomer, unassigned) [Example 69, 8-fluoro-6-(1-(8-isopropyl-8-azabicyclo[3.2.1]octan-3-yl)piperidin-4-yl)-2-(4-(methylsulfonyl)phenyl)imidazo[1,2-a]pyridine] | 0.026 µM | 3.4 µM | > 50 µM
COc1ccc(-c2cn3c(n2)CCC(C2CCN(C4CC5(C4)CN(C4CCC4)C5)CC2)C3)cc1OC (racemic) [Example 48, 6-(1-(2-cyclobutyl-2-azaspiro[3.3]heptan-6-yl)piperidin-4-yl)-2-(3,4-dimethoxyphenyl)-5,6,7,8-tetrahydroimidazo[1,2-a]pyridine] | 0.112 µM | 2 µM | > 50 µM
COc1ccc(-c2cn3c(n2)CCC(C2CCN(C4CCN(CC5CC5)CC4)CC2)C3)cc1OC (single isomer, unassigned) [Example 56, 6-(1′-(cyclopropylmethyl)-[1,4′-bipiperidin]-4-yl)-2-(3,4-dimethoxyphenyl)-5,6,7,8-tetrahydroimidazo[1,2-a]pyridine] | 0.54 µM | 3.8 µM | > 50 µM
